Assay results: a melting point compilation (Tetko et al.; mined from patent text by program, amines drawn as free bases though some values may be those of a salt)

Structure (SMILES)	melting point [°C]
O=C(c1ccc(Cl)cc1)C(O)(Cn1cncn1)C(Cl)(Cl)Cl (stereo not drawn)	173 to 174
COCC(C1CC1)n1cc(Cl)nc(Nc2cc(C)c(OC(F)F)nc2C)c1=O (stereo not drawn)	103 to 104
O=C(N[C@@H](Cc1ccccc1)C(=O)O)OCC1c2ccccc2Oc2ccccc21	143 to 145
CCN(CC)C(=O)COc1ccc(C(O)(CC)c2cccc(C(F)(F)F)c2)cc1 (stereo not drawn)	83 to 84
Clc1ccc(N=Cc2ccc(Cl)c3cc(Cl)cnc23)c(Cl)c1	156
OC(CN1CCNC1=S)c1ccc(Cl)cc1 (stereo not drawn)	153
CCCCNC(=O)NS(=O)(=O)c1ccccc1S(=O)(=O)N(C)C(F)(F)C(F)F	146 to 152
CC(=NOCCOc1ccc(CC2OC(=O)N(C(c3ccccc3)(c3ccccc3)c3ccccc3)C2=O)cc1)c1ccc(-c2ccccc2)cc1 (stereo not drawn)	193 to 195
O=C(NNC(=O)C(O)c1cccc(O)c1)c1c(O)cc(O)cc1Cl (stereo not drawn)	230 to 231
CON1C(C)(C)CC(OC(=O)c2cccc(C(=O)OC3CC(C)(C)N(OC)C(C)(C)C3)c2)CC1(C)C	99 to 101
COC(=O)CCCC(=O)N(C)CCc1c[nH]c2ccccc12	101 to 102
CCOC(=O)C(C)=CC=CC(C)=CC=CC=C(C)C=O	120 to 121
O=C(NC(=O)N1CCSC1c1ccccc1OCCN1CCN(c2cccc(F)c2)CC1)c1ccccc1 (stereo not drawn)	125 to 127
CCCCOc1ccc(NC(=O)Nc2ccc(S(N)(=O)=O)cc2)cc1	236 to 239
CN(Cc1cccc(-c2ccc(CC3SC(=O)NC3=O)cc2)c1)C(=O)c1ccno1 (stereo not drawn)	160
O=C(O)Cc1c(C(=O)c2ccc(Cl)cc2)[nH]c2cc(Cl)ccc12	181 to 183
COc1ccccc1CN[C@@H]1[C@@H]2CCN([C@H](CCc3ccccc3)C2)[C@@H]1C(c1ccccc1)c1ccccc1 (relative stereo)	107 to 108
FC(F)C(F)(F)Sc1nc(-c2ccc(Cl)c(Cl)c2)c(-c2cccs2)[nH]1	178 to 180
CC(=O)NC(=CC(=O)[C@H](Cc1ccccc1)N(Cc1ccccc1)Cc1ccccc1)Cc1ccccc1	95 to 96
O=C(c1cc(Cc2ccccc2)cc(Cn2ccnc2)c1)c1cc(Cl)c2cccnc2c1O	148 to 150
OCc1ccc(-c2ccc3nnn(Cc4ccc(F)cc4)c3n2)cc1	210 to 213
O=C1CN(N=Cc2ncc(-c3ccc([N+](=O)[O-])cc3)o2)C(=O)N1	314 to 316
CCOc1cccc(C)c1S(=O)(=O)NC(=O)c1noc(C)n1	168
COC(=O)CCn1cnc2c(Cl)ncnc21	93.5

Structure (SMILES)	melting point [°C]
CC(C)C[C@H](NC(=O)OCc1ccccc1)C(=O)N[C@@H](Cc1ccccc1)C(=O)CSCCCl	77 to 80
CS(=O)(=O)c1cnc2c(c1)CCC(c1ccc(Cl)c(Cl)c1)O2 (stereo not drawn)	172
Cn1c(C(F)(F)F)nn(-c2cc(F)c(C#N)cc2F)c1=O	74
CCc1nc(-c2ccc(/C=C/C3(O)CN4CCC3CC4)cc2)no1 (stereo not drawn)	158 to 160
O=C(O)c1ccc2oc(COCc3ccccc3)cc2c1	129 to 132
COc1ccc(C2=NNC(N)(C3CCN(Cc4ccccc4)CC3)c3cc(OC)ccc32)cc1 (stereo not drawn)	150
COC(=O)Cc1ccc(CNC(=O)C2Cc3ccccc3N2S(=O)(=O)c2ccc(-c3ccc(F)cc3C)cc2)cc1 (stereo not drawn)	71 to 75
CCOP(=O)(OCC)C1Cc2cc(C(F)(F)F)cc3[nH]c(=O)c(=O)n(c23)C1 (stereo not drawn)	253
CCC(O/N=C(\C(=O)O)c1csc(N)n1)C(=O)OC(C)(C)C (stereo not drawn)	122 to 124
CCC1c2ccc(F)n2-c2ccc(F)cc2N1S(=O)(=O)c1ccc(O)cc1 (stereo not drawn)	169 to 171
O=C(O)c1ccc2c(c1)Sc1ccc(Cl)cc1C2	294 to 295
Cc1cc(C(=O)O)ccc1-c1ccc2cc3c(cc2c1)C(C)(C)CCC3(C)C	248 to 250
Cc1cc(Cl)nnc1-c1ccc(Br)cc1	197 to 200
COC(=O)c1ccc(OC(=O)c2ccccc2)cc1O	103
CC(C)C1(C(C)C)C(=O)N=C2c3ccccc3C(=O)N21	146 to 148
CNC(=O)c1cccc(CNc2n[nH]c3ncnc(Nc4cccc(Cl)c4)c23)c1	252 to 254
CCCc1ccc(-c2ccc(-c3ccc(OC)cc3)nn2)cc1	128 to 130
COc1cc(I)ccc1-c1ccccc1	57
CSCCOc1cc(N)c(Cl)cc1C(=O)O	138 to 140
O=C1c2ccccc2OCC1SC(=O)C(F)(F)F (stereo not drawn)	75 to 79
Cc1n[nH]c(CC(=O)O)c1Oc1cc(Cl)cc(Cl)c1	156 to 158
Cc1c2c(c(Oc3ccc(C(C)C)cc3)c(C)c1NC(=O)CC(C)(C)C)OC(C)(C)C2	148 to 149
COc1ccc(C2=NN(C3CCN(c4ncccn4)CC3)C(=O)[C@@H]3CC=CC[C@H]23)cc1OC	163 to 166

Further lines, results first:

melting point [°C]	Structure (SMILES)
144	COc1ccc(C2CCCCC2)cc1-c1csc(NC(=O)N2CCN(C[C@@H]3CCCN(CCC(=O)O)C3)CC2)n1
85 to 93	CCCNC(=O)C(C)Cc1ccc2c(c1)c(Cc1ccc(C(=O)O)cc1OC)cn2CCC (single isomer, unassigned; (-))
217 to 218	CC(C)c1cccc(C(C)C)c1NC(=O)NCC1c2ccccc2-c2ccccc21
150 to 152	Cc1nn(C)c(OCC(=O)c2ccccc2)c1C(=O)c1ccc(Cl)c(C)c1Cl
117 to 119	C[C@H]1[C@H](O)[C@H](O)C(S(=O)(=O)c2ccccc2)=C[C@H](C)[C@H]1O[Si](C)(C)C(C)(C)C
130 to 132	Cc1cccc(C=CC(=O)c2ccc([N+](=O)[O-])cc2)c1
135	CS(=O)c1nc2ccc(C(F)(F)F)cc2[nH]1 (stereo not drawn)
161	C#Cc1ccc(Nc2c(C(=O)c3nccs3)ccc(F)c2F)c(F)c1
265 to 266	O=C(Nc1cnc2c(c1)OCCN2)c1cc2cc(F)ccc2n1Cc1cccc(F)c1
80 to 81	COc1c(C)c(C)cc(C)c1C(O)(c1ccccc1)C(C)C (stereo not drawn)
205	O=C1c2ncccc2C(=O)c2c(-c3ccccc3NC(=O)C(F)(F)F)ccnc21
158 to 160	O=C(NC1CCCCC1)ON1C(=O)CCC1=O
99 to 103	CCOC(=O)C(C)(OC)C(=O)Nc1ccc(Br)cc1C (stereo not drawn)
131	COc1ccc(-c2cc3ccccc3[nH]2)c(C)c1
134 to 135	COC(=O)c1ccc(Cc2cn(C)c3ccc(NC(=O)OC4CCCC4)cc23)c(OC)c1
120 to 121	Clc1ccc(-c2nc(Cl)cc(Cl)n2)cc1
191 to 193	CCCCCc1c(-c2ccc(OC(F)F)c(OC3CC3)c2)[nH]c2cn[nH]c(=O)c12
138 to 139	O=C1NC(=O)C(c2sccc2Br)O1 (stereo not drawn)
191 to 193	Oc1cc(O)cc(Oc2nnn[nH]2)c1
149 to 156	CN(C)S(=O)(=O)c1ccc(C(N)=O)c(C(F)(F)F)c1
218 to 220	Cc1nc(-c2ccc(N3CCN(C)CC3)c([N+](=O)[O-])c2)sc1C(=O)O
143 to 144	CCC(C(=O)Nc1ccc2cc[nH]c2c1)c1ccccc1 (stereo not drawn)
135 to 136	N#CN1CCC(c2nn(-c3ccc(C(F)(F)F)cc3)c3ccccc23)CC1
52 to 54	O=C(CN1C(=O)CC1Sc1ccc(Cl)cc1)NCCCCCCc1ccccc1 (stereo not drawn)
154 to 155	O=Cc1cc(-c2ccc(O)cc2)c2occc2c1
147 to 150	COCCOc1ccc(CCCOC(=O)NS(=O)(=O)c2ccc(Cl)cc2)c(Oc2ncc(C(F)(F)F)cc2Cl)c1

melting point [°C]	Structure (SMILES)
64 to 65	O=C(O)CC1(CCl)OCCO1
120	CCOC(=O)CC1(c2ccccc2)CCN(C(c2ccccc2)(c2ccccc2)c2ccccc2)CC1
68 to 71	CCOC(=O)c1c(C(C)C)nc2c(c(C)nn2C)c1-c1ccc(F)cc1
152 to 154	CC(CN1CCN(c2ccc(C(=O)O)cc2)CC1)Oc1ccccc1 (stereo not drawn)
85 to 89	CN(C)CC1CNc2ccccc2C1 (stereo not drawn)
113 to 116	O=C(Cl)c1ccccc1SCc1ccccc1
226 to 228	CC(C)(C)OC(=O)N1CCN(c2ccc3c(c2)-n2c(nc4ccccc4c2=O)C3=O)CC1
20 to 31	CCCCCCCCCCOCc1ccc(CO)cc1
180 to 181	C#CCn1c(=O)sc2cc(F)c(-n3c(=O)cc(C)n(C)c3=O)cc21
87 to 88	CCC(=NOc1ccc(Cl)cc1)c1cc(Cl)ccc1NS(=O)(=O)C(F)(F)F
160 to 161	CC(=O)c1cc(N2CCCC2)ccc1NC(=O)c1ccccc1OCc1ccccc1
148 to 154	CC(C)(C)c1cc(C(C)(C)c2cc(C(C)(C)C)c(O)c(C(C)(C)C)c2)cc(C(C)(C)C)c1O
216 to 217	CCCCc1nc2cccc(CC(=O)O)c2n1Cc1ccccc1Cl
266 to 270	Cc1cc(C2=NNC(=O)CC2)c2c(c1)N(C)C(=O)CO2
134 to 136	CC(C)(C)c1cc(CCc2ccccc2NC(=O)NCCc2ccc([N+](=O)[O-])cc2)cc(C(C)(C)C)c1O
108 to 110	CC1(C)OC(=O)[C@H](CC(=O)O)O1
166 to 169	O=C(c1cccs1)C1C(=O)N(C(=O)NS(=O)(=O)Cl)c2ccc(Cl)cc21 (stereo not drawn)
178	COCc1cccc(-c2c(Cl)ncn2-c2ccc(S(C)(=O)=O)cc2)c1
> 250	Cc1sc(N)nc1-c1ccc2c(c1)CC(=O)N2
188 to 191	Cn1c(NCc2cccc(NC(=O)C=Cc3ccccc3Cl)c2)nc2ccccc21
180 to 182	O=C(O)c1ccccc1SC1CCOC1=O (stereo not drawn)
89 to 90	OCc1cnc(-c2cccs2)s1
102 to 104	Fc1cc(F)c(-c2c(Cl)ncn2-c2ccc(Cl)cc2)c(F)c1
116 to 119	CC(C)N(CCC1(c2ccccc2Cl)CC(=O)NC1=O)C(C)C (stereo not drawn)
197 to 200	CC(C)N1C(=O)NC(c2ccc3c(c2)OCO3)c2cc3c(cc21)OCCO3 (stereo not drawn)
